Source: ChEMBL document CHEMBL1137597, “Evolution of thiazolidine-based blockers of human Kv1.5 for the treatment of atrial arrhythmias” (Bioorg Med Chem Lett, 2007)

Experiments:
[1] = biological target: T1, Potassium voltage-gated channel subfamily A member 5 (Homo sapiens, UniProt P22460); assay: Inhibition of ultra-rapid delayed rectifier current Ikur in human atrial cells at 1uM; type: functional, cell-based; settings: Cardiac atrium
[2] = biological target: T1, Potassium voltage-gated channel subfamily A member 5; assay: Inhibition of Kv1.5 mediated ultra-rapid delayed rectifier current Ikur in human atrial cells; type: functional, cell-based, Cardiac atrium
[3] = Percent oxidation in rat S9 microsomal fraction; type: ADME; settings: read-out: Oxidation

T1 sequence (P22460 whole entry): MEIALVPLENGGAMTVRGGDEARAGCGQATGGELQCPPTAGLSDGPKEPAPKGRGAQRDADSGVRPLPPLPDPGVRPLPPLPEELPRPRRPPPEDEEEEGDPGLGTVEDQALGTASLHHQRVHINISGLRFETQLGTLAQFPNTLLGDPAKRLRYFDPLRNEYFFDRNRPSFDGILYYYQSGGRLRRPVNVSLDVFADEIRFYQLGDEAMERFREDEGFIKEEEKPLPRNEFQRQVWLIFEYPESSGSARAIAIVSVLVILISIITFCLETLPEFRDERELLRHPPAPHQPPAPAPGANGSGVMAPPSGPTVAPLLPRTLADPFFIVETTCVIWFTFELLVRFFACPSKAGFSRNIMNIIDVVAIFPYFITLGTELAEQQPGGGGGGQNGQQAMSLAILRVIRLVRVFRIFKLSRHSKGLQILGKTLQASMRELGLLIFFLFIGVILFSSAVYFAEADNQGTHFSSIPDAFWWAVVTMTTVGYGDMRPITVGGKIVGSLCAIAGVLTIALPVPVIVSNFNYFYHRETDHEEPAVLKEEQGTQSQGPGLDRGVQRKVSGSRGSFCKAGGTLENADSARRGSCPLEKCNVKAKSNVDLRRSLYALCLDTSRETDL

Row | Compound | inhibition [1] | IC50 [2] | metabolised [3]
1 | Cc1ccc(C2SCCN2C(=O)OCc2ccccc2)cc1C (stereo not drawn) | 18% | – | –
2 | COc1cccc(CON2C(=O)CSC2c2ccc(Cl)c(Cl)c2)c1 (stereo not drawn) | – | 179 nM | –
3 | COc1ccc(/C=C/C(=O)N2CCSC2c2ccc(C)c(C)c2)cc1 (stereo not drawn) | 92% | – | –
4 | COc1ccc(CON2C(=O)CSC2c2ccccc2)cc1 (stereo not drawn) | – | 924 nM | –
5 | COc1ccccc1CON1C(=O)CSC1c1ccc(Cl)c(Cl)c1 (stereo not drawn) | – | 204 nM | –
6 | COc1ccc(CC(=O)N2CCSC2c2ccc(Cl)c(Cl)c2)cc1 (stereo not drawn) | – | – | 100%
7 | Cc1ccc(C2SCCN2C(=O)COc2ccccc2)cc1 (stereo not drawn) | 80% | – | –
8 | O=C(COc1ccccc1)N1CCSC1c1ccc(C2CC2)cc1 (stereo not drawn) | 64% | – | –
9 | COc1ccccc1CON1C(=O)CSC1c1ccc(C)c(C)c1 (stereo not drawn) | 92% | 177 nM | –
10 | COc1ccc(CC(=O)N2CCSC2c2ccc(C)c(C)c2)cc1 (stereo not drawn) | 77% | 537 nM | –
11 | COc1ccc(C2SCCN2C(=O)COc2ccccc2)cc1Cl (stereo not drawn) | 35% | – | –
12 | O=C1CSC(c2ccc(Cl)c(Cl)c2)N1OCc1ccccc1 (stereo not drawn) | 77% | 463 nM | –
13 | Cc1ccc(C2SCCN2C(=O)COc2ccccc2)cc1C (stereo not drawn) | 95% | – | –
14 | COc1ccc(CON2C(=O)CSC2c2ccc(Cl)c(Cl)c2)cc1 (stereo not drawn) | 92% | 113 nM | –
15 | COc1ccc(CCN2C(=O)CSC23CCc2c(C)cccc23)cc1 (stereo not drawn) | 61% | 487 nM | –
16 | CN(C)c1ccc(C2SCCN2C(=O)COc2ccccc2)cc1 (stereo not drawn) | 55% | – | –

Row | Compound | inhibition [1] | IC50 [2] | metabolised [3]
17 | O=C1CSC(c2ccc(Cl)cc2)N1OCc1ccccc1 (stereo not drawn) | 35% | 997 nM | –
18 | COc1cccc(CON2C(=O)CSC2c2ccc(Cl)cc2)c1 (stereo not drawn) | – | 380 nM | –
19 | O=C(COc1ccccc1)N1CCSC1c1ccc(Cl)c(Cl)c1 (stereo not drawn) | 93% | – | –
20 | COc1ccc(CCC(=O)N2CCSC2c2ccc(C)c(C)c2)cc1 (stereo not drawn) | 89% | 150 nM | –
21 | COc1ccc(CCCC(=O)N2CCSC2c2ccc(C)c(C)c2)cc1 (stereo not drawn) | 68% | – | –
22 | COc1ccc(CON2C(=O)CSC2c2ccc(C)c(C)c2)cc1 (stereo not drawn) | – | 95 nM | –
23 | COc1cccc(CON2C(=O)CSC2c2ccc(C)c(C)c2)c1 (stereo not drawn) | 75% | 269 nM | –
24 | COc1ccc(C2SCCN2C(=O)COc2ccccc2)cc1 (stereo not drawn) | 72% | – | –
25 | Cc1ccc(C2SCCN2C(=O)CCc2ccccc2)cc1C (stereo not drawn) | 87% | – | –
26 | COc1ccc(CCN2C(=O)CSC23CCc2cc(Cl)ccc23)cc1 (stereo not drawn) | 66% | 812 nM | –
27 | COc1ccc(CON2C(=O)CSC2c2ccc(Cl)cc2)cc1 (stereo not drawn) | – | 187 nM | –
28 | Cc1ccc(C2SCC(=O)N2OCc2ccccc2)cc1C (stereo not drawn) | 92% | 207 nM | –
29 | COc1ccc(CCN2C(=O)CSC2(C)c2ccc(C)c(C)c2)cc1 (stereo not drawn) | 96% | 69 nM | –
30 | COc1ccc(CCN2C(=O)CSC2(C)c2ccc(C)cc2)cc1 (stereo not drawn) | 88% | 390 nM | –
31 | COc1ccccc1CON1C(=O)CSC1c1ccc(Cl)cc1 (stereo not drawn) | 25% | – | –
